This note sets out measurements from patent US11040981B2, “Pyrrolotriazine compounds and methods of inhibiting TAM kinases” (Syros Pharmaceuticals, Inc., priority 2017, dated 2021).

The target in one test is T1, AXL (Homo sapiens, UniProt P30530).
T1 sequence (P30530 26-894): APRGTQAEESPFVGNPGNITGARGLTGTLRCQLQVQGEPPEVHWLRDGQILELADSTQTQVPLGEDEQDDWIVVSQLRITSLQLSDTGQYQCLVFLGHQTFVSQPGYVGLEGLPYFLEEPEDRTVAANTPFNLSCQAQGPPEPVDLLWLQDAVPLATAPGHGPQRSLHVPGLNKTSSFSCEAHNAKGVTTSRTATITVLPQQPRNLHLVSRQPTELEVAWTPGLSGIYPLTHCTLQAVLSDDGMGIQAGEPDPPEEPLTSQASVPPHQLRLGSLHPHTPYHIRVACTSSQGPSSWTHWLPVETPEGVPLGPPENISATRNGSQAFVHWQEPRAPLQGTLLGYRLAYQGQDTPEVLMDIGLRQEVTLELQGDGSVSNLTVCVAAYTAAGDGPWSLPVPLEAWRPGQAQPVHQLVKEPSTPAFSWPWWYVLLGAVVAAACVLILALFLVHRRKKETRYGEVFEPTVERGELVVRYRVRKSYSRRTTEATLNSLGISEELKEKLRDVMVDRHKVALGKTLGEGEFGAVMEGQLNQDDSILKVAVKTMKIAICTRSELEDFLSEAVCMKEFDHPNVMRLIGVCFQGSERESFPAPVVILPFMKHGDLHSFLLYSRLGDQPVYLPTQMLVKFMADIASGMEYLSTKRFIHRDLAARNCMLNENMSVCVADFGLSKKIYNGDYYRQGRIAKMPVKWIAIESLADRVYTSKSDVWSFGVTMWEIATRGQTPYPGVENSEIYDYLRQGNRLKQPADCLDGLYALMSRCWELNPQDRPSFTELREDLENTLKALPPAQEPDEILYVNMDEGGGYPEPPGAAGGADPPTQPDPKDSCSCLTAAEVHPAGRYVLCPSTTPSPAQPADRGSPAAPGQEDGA
Nature of the test: TR-FRET kinase activity assay, AXL. The test is classed as biochemical. The note with it: ATP at Km, 60 minutes. The gist of the method: (§1)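 Compounds were tested against each kinase with ATP set at its own Km and a labelled tyrosine peptide substrate. Following one hour at room temperature in buffer containing 10 mM MgCl2 and 1 mM DTT, phosphorylated product was detected by Europium antibody TR-FRET after EDTA quench, and IC50 values were calculated.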
(In general: In TR-FRET formats the signal depends on donor and acceptor labels being close together.)

The target in another test is T2, MERTK (Homo sapiens, UniProt Q12866).
T2 sequence (Q12866 21-999): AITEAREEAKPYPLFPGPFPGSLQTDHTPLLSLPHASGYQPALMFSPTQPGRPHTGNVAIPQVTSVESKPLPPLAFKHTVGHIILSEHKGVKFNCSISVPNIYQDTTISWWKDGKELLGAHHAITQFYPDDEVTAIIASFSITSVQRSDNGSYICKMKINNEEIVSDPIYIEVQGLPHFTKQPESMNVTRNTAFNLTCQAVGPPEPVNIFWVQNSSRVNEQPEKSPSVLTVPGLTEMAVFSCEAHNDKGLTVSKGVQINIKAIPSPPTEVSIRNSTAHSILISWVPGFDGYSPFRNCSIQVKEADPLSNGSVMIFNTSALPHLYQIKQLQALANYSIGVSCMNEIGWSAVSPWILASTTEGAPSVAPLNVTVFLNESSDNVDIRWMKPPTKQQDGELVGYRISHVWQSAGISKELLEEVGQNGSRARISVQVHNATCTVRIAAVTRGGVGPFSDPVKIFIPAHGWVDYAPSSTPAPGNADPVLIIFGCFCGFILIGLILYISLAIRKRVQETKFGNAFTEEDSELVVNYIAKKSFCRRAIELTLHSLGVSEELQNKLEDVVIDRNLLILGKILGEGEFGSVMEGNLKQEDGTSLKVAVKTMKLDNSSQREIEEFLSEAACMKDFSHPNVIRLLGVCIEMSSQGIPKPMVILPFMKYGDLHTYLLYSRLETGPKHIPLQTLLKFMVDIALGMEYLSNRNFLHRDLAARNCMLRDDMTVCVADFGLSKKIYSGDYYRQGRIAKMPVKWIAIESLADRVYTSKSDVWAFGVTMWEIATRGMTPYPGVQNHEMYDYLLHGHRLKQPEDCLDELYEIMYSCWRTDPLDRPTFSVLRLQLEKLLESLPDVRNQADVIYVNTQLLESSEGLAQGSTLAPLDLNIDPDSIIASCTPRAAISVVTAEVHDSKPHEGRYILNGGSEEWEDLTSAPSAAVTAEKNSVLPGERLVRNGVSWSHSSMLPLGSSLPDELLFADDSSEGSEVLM
Nature of the test: TR-FRET kinase activity assay, MERTK. It is filed as biochemical. The note with it: for IC50: TR-FRET activity assay, ATP at Km, 60 minutes, read-out: Mer IC50; for FLT3/Mer ratio (FLT3 IC50/Mer IC50): ratio of Mer to FLT3: FLT3 IC50/Mer IC50. An outline of the steps:
as §1

Structures can show the parent of a compound that is named as a salt.

Take `COC[C@H](C)Nc1ncc2c(-c3ccnc(C)c3)cc(C3CCC4(CC3)NC(=O)NC4=O)n2n1` (mixture of isomers) [Compound 325, (S)-8-(2-((1-methoxypropan-2-yl)amino)-5-(2-methylpyridin-4-yl)pyrrolo[2,1-f][1,2,4]triazin-7-yl)-1,3-diazaspiro[4.5]decane-2,4-dione]: the IC50 (as a rule, the point on the concentration scale where inhibition reaches its midpoint) at AXL was not above 100 nM. Further, on MERTK, the IC50 was not above 100 nM and the “FLT3/Mer ratio (FLT3 IC50/Mer IC50)” value is “+++ (“+++” represents a ratio of >100)”.

Turning to `CCCCC[C@H](C)Nc1ncc2c(C3=CC[C@@H](C(=O)N4CCOCC4)CC3)cc([C@H]3CC[C@H](O)CC3)n2n1` [Compound 113], the IC50 at AXL was not above 100 nM. Moreover, on MERTK, the concentration for half-maximal inhibition (IC50) is not above 100 nM; the “FLT3/Mer ratio (FLT3 IC50/Mer IC50)” value was “++ (“++” represents a ratio of between 10 and 100)”.

`CCCCC[C@H](C)Nc1ncc2c(N3CCNCC3)cc([C@H]3CC[C@H](O)CC3)n2n1` [Compound 114] yielded an IC50 against AXL not above 100 nM. Moreover, on MERTK, the IC50 was not above 100 nM and the “FLT3/Mer ratio (FLT3 IC50/Mer IC50)” value is on record as “+++ (“+++” represents a ratio of >100)”.

`CCCCC[C@H](C)Nc1ncc2c(N3CCC(N(C)C)CC3)cc(C3CCC(O)CC3)n2n1.Cl` (stereo partly drawn) [Compound 115, 4-[5-[4-(dimethylamino)-1-piperidyl]-2-[[(1S)-1-methylhexyl]amino]pyrrolo[2,1-f][1,2,4]triazin-7-yl]cyclohexanol hydrochloride]: the IC50 against AXL was 100 to 1000 nM; at MERTK it was not above 100 nM. Also, the “FLT3/Mer ratio (FLT3 IC50/Mer IC50)” value at MERTK was “++ (“++” represents a ratio of between 10 and 100)”.

For the compound `CCCCC[C@H](C)Nc1ncc2c(C3CCNCC3)cc([C@H]3CC[C@H](O)CC3)n2n1` [Compound 116, (1S,4r)-4-(2-((S)-heptan-2-ylamino)-5-(piperidin-4-yl)pyrrolo[2,1-f][1,2,4]triazin-7-yl)cyclohexanol hydrochloride], the IC50 at AXL was not above 100 nM. At MERTK, the IC50 was not above 100 nM and the “FLT3/Mer ratio (FLT3 IC50/Mer IC50)” value was “+++ (“+++” represents a ratio of >100)”.

Take `CCCCC[C@H](C)Nc1ncc2c(N3CCC(C(=O)O)CC3)cc([C@H]3CC[C@H](O)CC3)n2n1` [Compound 117]: the IC50 at AXL is 100 to 1000 nM. At MERTK, the IC50 was not above 100 nM and the “FLT3/Mer ratio (FLT3 IC50/Mer IC50)” value was “+++ (“+++” represents a ratio of >100)”.

The compound `CC[C@H](C)Nc1ncc2c(-c3ccc(CN4CCN(C)CC4)cc3)cc([C@H]3CC[C@H](O)CC3)n2n1` [Compound 118] came in with an IC50 against AXL not above 100 nM. Moreover, on MERTK, the IC50 was not above 100 nM; the “FLT3/Mer ratio (FLT3 IC50/Mer IC50)” value was “++ (“++” represents a ratio of between 10 and 100)”.

For `CNS(=O)(=O)c1cncc(-c2cc([C@H]3CC[C@H](O)CC3)n3nc(N[C@@H](C)COC)ncc23)c1` [Compound 272], the IC50 against AXL lay in the range of 100 to 1000 nM. For the same compound, at MERTK, the IC50 is not above 100 nM and the “FLT3/Mer ratio (FLT3 IC50/Mer IC50)” value is “+++ (“+++” represents a ratio of >100)”.

On to `CC(CC(F)(F)F)Nc1ncc2c(-c3cncc(S(C)(=O)=O)c3)cc(C3CCC(O)CC3)n2n1` (stereo not drawn) [Compound 273], for which the IC50 against AXL was not above 100 nM. At MERTK, the IC50 was not above 100 nM and the “FLT3/Mer ratio (FLT3 IC50/Mer IC50)” value was “+++ (“+++” represents a ratio of >100)”.

On to `COCCn1cc(-c2cc([C@H]3CC[C@H](O)CC3)n3nc(N[C@@H](C)COC(F)F)ncc23)cn1` [Compound 274], for which the IC50 at AXL and on MERTK was not above 100 nM in each case. Moreover, the “FLT3/Mer ratio (FLT3 IC50/Mer IC50)” value at MERTK is “+++ (“+++” represents a ratio of >100)”.

At AXL, `CNS(=O)(=O)c1cncc(-c2cc([C@H]3CC[C@H](O)CC3)n3nc(N[C@@H](C)COC(F)F)ncc23)c1` [Compound 275] returned an IC50 not above 100 nM. For the same compound, on MERTK, the IC50 is not above 100 nM and the “FLT3/Mer ratio (FLT3 IC50/Mer IC50)” value is recorded as “+++ (“+++” represents a ratio of >100)”.

Regarding `C[C@@H](CC(F)(F)F)Nc1ncc2c(-c3cn[nH]c3)cc([C@H]3CC[C@H](O)CC3)n2n1` [Compound 276], the IC50 on AXL and on MERTK was not above 100 nM each time. For the same compound, at MERTK, the “FLT3/Mer ratio (FLT3 IC50/Mer IC50)” value is “+++ (“+++” represents a ratio of >100)”.

On AXL, `COC[C@H](C)Nc1ncc2c(-c3cnn(Cc4nnc(C)o4)c3)cc([C@H]3CC[C@H](O)CC3)n2n1` [Compound 277] returned an IC50 not above 100 nM. In addition, on MERTK, the IC50 was not above 100 nM and the “FLT3/Mer ratio (FLT3 IC50/Mer IC50)” value is “+++ (“+++” represents a ratio of >100)”.

Turning to `CNS(=O)(=O)c1cncc(-c2cc([C@H]3CC[C@H](O)CC3)n3nc(N[C@@H](C)CC(F)(F)F)ncc23)c1` [Compound 278], the IC50 against AXL is not above 100 nM. In addition, on MERTK, the IC50 was not above 100 nM and the “FLT3/Mer ratio (FLT3 IC50/Mer IC50)” value was “+++ (“+++” represents a ratio of >100)”.

`COC[C@H](C)Nc1ncc2c(-c3ccc(S(C)(=O)=O)nc3)cc([C@H]3CC[C@H](O)CC3)n2n1` [Compound 279]: the IC50 against AXL was not above 100 nM. Besides, at MERTK, the IC50 was not above 100 nM and the “FLT3/Mer ratio (FLT3 IC50/Mer IC50)” value is listed as “+++ (“+++” represents a ratio of >100)”.

For the compound `COC[C@H](C)Nc1ncc2c(-c3cnn(CCS(C)(=O)=O)c3)cc([C@H]3CC[C@H](O)CC3)n2n1` [Compound 280], the IC50 against AXL and at MERTK was not above 100 nM each time. Moreover, the “FLT3/Mer ratio (FLT3 IC50/Mer IC50)” value at MERTK is “+++ (“+++” represents a ratio of >100)”.

As for `COC[C@H](C)Nc1ncc2c(-c3cnn(Cc4ccnnc4)c3)cc([C@H]3CC[C@H](O)CC3)n2n1` [Compound 281], on AXL, the IC50 is not above 100 nM. At MERTK, the IC50 was not above 100 nM and the “FLT3/Mer ratio (FLT3 IC50/Mer IC50)” value is reported as “+++ (“+++” represents a ratio of >100)”.

The compound `COC[C@H](C)Nc1ncc2c(-c3cnn(C(C)(C)C(=O)N4CCOCC4)c3)cc([C@H]3CC[C@H](O)CC3)n2n1` [Compound 282] came in with an IC50 at AXL not above 100 nM. At MERTK, the IC50 is not above 100 nM and the “FLT3/Mer ratio (FLT3 IC50/Mer IC50)” value is “+++ (“+++” represents a ratio of >100)”.

In the case of `COC[C@H](C)Nc1ncc2c(-c3cnn(C(C)(C)C(=O)N4CCC4)c3)cc([C@H]3CC[C@H](O)CC3)n2n1` [Compound 283], the IC50 against AXL and at MERTK was not above 100 nM throughout. Further, the “FLT3/Mer ratio (FLT3 IC50/Mer IC50)” value on MERTK is “+++ (“+++” represents a ratio of >100)”.

`COC[C@H](C)Nc1ncc2c(-c3cnn(C(C)(C)C(=O)O)c3)cc([C@H]3CC[C@H](O)CC3)n2n1` [Compound 284]: on AXL, the IC50 was 100 to 1000 nM. For the same compound, at MERTK, the IC50 was not above 100 nM and the “FLT3/Mer ratio (FLT3 IC50/Mer IC50)” value is listed as “+++ (“+++” represents a ratio of >100)”.

As for `COC[C@H](C)Nc1ncc2c(-c3cnn(Cc4noc(C)n4)c3)cc([C@H]3CC[C@H](O)CC3)n2n1` [Compound 285], at AXL, the IC50 is not above 100 nM. Besides, at MERTK, the IC50 was not above 100 nM and the “FLT3/Mer ratio (FLT3 IC50/Mer IC50)” value was “+++ (“+++” represents a ratio of >100)”.

For `COC[C@H](C)Nc1ncc2c(-c3cnn(C4CN(C(C)=O)C4)c3)cc([C@H]3CC[C@H](O)CC3)n2n1` [Compound 286], on AXL, the IC50 is not above 100 nM. Also, on MERTK, the IC50 was not above 100 nM and the “FLT3/Mer ratio (FLT3 IC50/Mer IC50)” value is reported as “+++ (“+++” represents a ratio of >100)”.
